Experimental data reported in patent US20200197439A1, “IMM[…] POLYOMAVIRUSES” (Atara Biotherapeutics, Inc., priority 2016, published 2020).

Columns and labels:
CD4+ T cells = test: HLA restriction of mapped CD4+ BKV epitopes (ICS with peptide loaded HLA-matched and mismatched LCLs); assay type: cell-based, human; conditions: CD4+ epitopes mapped in this study; T cells stimulated with peptide loaded HLA-matched and mismatched LCLs
From the text: (§1) In order to characterize the T cell responses directed towards these antigens and precisely map the HLA class I and class II-restricted T cell responses, individual overlapping peptides (15 aa long overlapping by 10 aa) were sourced for LTA, STA and VP1 proteins for T cell epitope mapping. A two-dimensional peptide matrix was used to distribute all individual peptides into small overlapping peptide pools. The matrix is set up in the way that each peptide occurs once on the ordinate (FIG. 3). These peptide pools were used in ICS assays. After the ICS analysis, T cell response to the peptide pools was compared with the matrix to identify individual peptides. These individual peptides were further assessed for T cell expansion and ICS analysis to identify potential BK. Once the 15 mer peptide was identified, further mimimalization of the epitope sequence was carried out to identify the optimal T cell epitope sequence. The 15 mer peptide sequences were trimmed from both N- and C-terminus to a minimal of 9 aa long peptides. Once the minimal peptide sequence was identified, further confirmation was carried out using limiting dose titration ICS assay. After mapping minimal epitope sequence, the HLA restriction of the epitope was identified by stimulating T cells using peptide loaded HLA-matched and mismatched LCLs.
In order to map the T cell epitope further analysis was carried out using sub pools of STA peptides (12 pools) designed based on the two dimensional matrix shown in FIG. 3. […] Similar epitope mapping process was carried out for other CD4^+ and CD8^+ T cell epitopes.

CD8+ T cells = test: HLA restriction of mapped CD8+ BKV epitopes (ICS with peptide loaded HLA-matched and mismatched LCLs); assay type: cell-based, human; conditions: CD8+ epitopes mapped in this study; T cells stimulated with peptide loaded HLA-matched and mismatched LCLs
From the text: as §1, with “LCLs. […]” for “LCLs.”

Row | Sequence | HLA Restriction (CD4+ T cells) | HLA Restriction (CD8+ T cells)
1 | CFTQWFGLDLTEETL [JCV variant […]] | DRB1*03/04 | –
2 | FNVPKRRYWLFKGPI [JCV variant […]] | DRB1*15 | –
3 | GGDEDKMKRMNTLYK [JCV variant […]] | DRB1*13 | –
4 | GTQQWRGLARYFKIR [JCV variant […]] | DRB1*11/8 | –
5 | KMKRMNTLYKKMEQD [JCV variant […]] | DRB1*13 | –
6 | RGLARYFKIRLRKRS [JCV variant […]] | DRB1*11 | –
7 | RKAYLRKCKEFHPDK [JCV variant […]] | DRB1*13 | –
8 | RRYWLFKGPIDSGKT [JCV variant […]] | DRB1*15 | –
9 | VKNPYPISFLL (BK polyomavirus) | – | Cw*07
10 | WDEDLFCHEDMFASD [JCV variant […]] | DQB5*01 | –
